# Legend:
# Experiment in all cases: relative viability (nuclei count vs DMSO), 5 days (fraction); higher = more cells survive
# ChaGo-K-1 = test system: ChaGo-K-1
# Procedure, shortened: (§1)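 Five library-drug doses in √10 steps were combined with a fixed anchor-drug dose, or a single drug was given alone, by pin tool to lung cancer cell lines in 1536-well plates the day after seeding. Nuclei were stained and counted after 5 days. Relative viability is the nuclei count in treated wells over that in vehicle wells, taken as the median of duplicate plates.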
# LK-2 = test system: LK-2
# Procedure, shortened: as §1
# HCC-827 = test system: HCC-827
# Procedure, shortened: as §1
# NCI-H2126 = test system: NCI-H2126
# Procedure, shortened: as §1
# NCI-H2085 = test system: NCI-H2085
# Procedure, shortened: as §1
# NCI-H23 = test system: NCI-H23
# Procedure, shortened: as §1
# EPLC-272H = test system: EPLC-272H
# Procedure, shortened: as §1
# LU99A = test system: LU99A
# Procedure, shortened: as §1
# NCI-H1666 = test system: NCI-H1666
# Procedure, shortened: as §1
# NCI-H1975 = test system: NCI-H1975
# Procedure, shortened: as §1
# HCC-78 = test system: HCC-78
# Procedure, shortened: as §1
# LOU-NH91 = test system: LOU-NH91
# Procedure, shortened: as §1
# LXF-289 = test system: LXF-289
# Procedure, shortened: as §1
# LCLC-103H = test system: LCLC-103H
# Procedure, shortened: as §1
# EMC-BAC-2 = test system: EMC-BAC-2
# Procedure, shortened: as §1
# NCI-H322M = test system: NCI-H322M
# Procedure, shortened: as §1
# NCI-H2405 = test system: NCI-H2405
# Procedure, shortened: as §1
# SW 1573 = test system: SW 1573
# Procedure, shortened: as §1
# RERF-LC-KJ = test system: RERF-LC-KJ
# Procedure, shortened: as §1
# NCI-H1563 = test system: NCI-H1563
# Procedure, shortened: as §1
# SW 900 = test system: SW 900
# Procedure, shortened: as §1
# NCI-H3122 = test system: NCI-H3122
# Procedure, shortened: as §1
# SK-LU-1 = test system: SK-LU-1
# Procedure, shortened: as §1
structure (smiles),measurement,setting,value
C=C1C(=O)O[C@@H](CCCCCCCC)[C@@H]1C(=O)O [C-75] + COc1cc2c(Oc3ccc(NC(=O)C4(C(=O)Nc5ccc(F)cc5)CC4)cc3F)ccnc2cc1OCCCN1CCOCC1 [Foretinib] (partner 0.25 µM),relative viability,ChaGo-K-1; first compound 0.08 µM,0.915
same,relative viability,ChaGo-K-1; first compound 0.253 µM,0.887
same,relative viability,ChaGo-K-1; first compound 0.8 µM,0.894
same,relative viability,ChaGo-K-1; first compound 2.53 µM,0.925
same,relative viability,ChaGo-K-1; first compound 8 µM,0.874
same,relative viability,LK-2; first compound 0.08 µM,0.944
same,relative viability,LK-2; first compound 0.253 µM,1.23
same,relative viability,LK-2; first compound 0.8 µM,1.15
same,relative viability,LK-2; first compound 2.53 µM,1.35
same,relative viability,LK-2; first compound 8 µM,1.06
same,relative viability,HCC-827; first compound 0.08 µM,1.02
same,relative viability,HCC-827; first compound 0.253 µM,1.05
same,relative viability,HCC-827; first compound 0.8 µM,1.04
same,relative viability,HCC-827; first compound 2.53 µM,0.965
same,relative viability,HCC-827; first compound 8 µM,0.945
same,relative viability,NCI-H2126; first compound 0.08 µM,1.1
same,relative viability,NCI-H2126; first compound 0.253 µM,1.27
same,relative viability,NCI-H2126; first compound 0.8 µM,1.2
same,relative viability,NCI-H2126; first compound 2.53 µM,1.08
same,relative viability,NCI-H2126; first compound 8 µM,1.07
same,relative viability,NCI-H2085; first compound 0.08 µM,0.842
same,relative viability,NCI-H2085; first compound 0.253 µM,0.879
same,relative viability,NCI-H2085; first compound 0.8 µM,0.921
same,relative viability,NCI-H2085; first compound 2.53 µM,0.782
same,relative viability,NCI-H2085; first compound 8 µM,1.14
same,relative viability,NCI-H23; first compound 0.08 µM,0.795
same,relative viability,NCI-H23; first compound 0.253 µM,1.08
same,relative viability,NCI-H23; first compound 0.8 µM,1.02
same,relative viability,NCI-H23; first compound 2.53 µM,0.808
same,relative viability,NCI-H23; first compound 8 µM,0.881
same,relative viability,EPLC-272H; first compound 0.08 µM,0.686
same,relative viability,EPLC-272H; first compound 0.253 µM,0.936
same,relative viability,EPLC-272H; first compound 0.8 µM,0.554
same,relative viability,EPLC-272H; first compound 2.53 µM,0.429
same,relative viability,EPLC-272H; first compound 8 µM,0.386
same,relative viability,LU99A; first compound 0.08 µM,0.809
same,relative viability,LU99A; first compound 0.253 µM,0.71
same,relative viability,LU99A; first compound 0.8 µM,0.831
same,relative viability,LU99A; first compound 2.53 µM,0.783
same,relative viability,LU99A; first compound 8 µM,0.63
same,relative viability,NCI-H1666; first compound 0.08 µM,0.991
same,relative viability,NCI-H1666; first compound 0.253 µM,1.01
same,relative viability,NCI-H1666; first compound 0.8 µM,0.969
same,relative viability,NCI-H1666; first compound 2.53 µM,0.732
same,relative viability,NCI-H1666; first compound 8 µM,0.777
same,relative viability,NCI-H1975; first compound 0.08 µM,0.917
same,relative viability,NCI-H1975; first compound 0.253 µM,0.834
same,relative viability,NCI-H1975; first compound 0.8 µM,0.974
same,relative viability,NCI-H1975; first compound 2.53 µM,0.785
same,relative viability,NCI-H1975; first compound 8 µM,0.878
same,relative viability,HCC-78; first compound 0.08 µM,0.553
same,relative viability,HCC-78; first compound 0.253 µM,0.554
same,relative viability,HCC-78; first compound 0.8 µM,0.577
same,relative viability,HCC-78; first compound 2.53 µM,0.421
same,relative viability,HCC-78; first compound 8 µM,0.687
same,relative viability,LOU-NH91; first compound 0.08 µM,0.938
same,relative viability,LOU-NH91; first compound 0.253 µM,0.873
same,relative viability,LOU-NH91; first compound 0.8 µM,0.903
same,relative viability,LOU-NH91; first compound 2.53 µM,0.914
same,relative viability,LOU-NH91; first compound 8 µM,0.948
same,relative viability,LXF-289; first compound 0.08 µM,0.949
same,relative viability,LXF-289; first compound 0.253 µM,0.965
same,relative viability,LXF-289; first compound 0.8 µM,0.932
same,relative viability,LXF-289; first compound 2.53 µM,0.654
same,relative viability,LXF-289; first compound 8 µM,0.948
same,relative viability,LCLC-103H; first compound 0.08 µM,0.814
same,relative viability,LCLC-103H; first compound 0.253 µM,0.736
same,relative viability,LCLC-103H; first compound 0.8 µM,0.687
same,relative viability,LCLC-103H; first compound 2.53 µM,0.598
same,relative viability,LCLC-103H; first compound 8 µM,0.743
same,relative viability,EMC-BAC-2; first compound 0.08 µM,1.02
same,relative viability,EMC-BAC-2; first compound 0.253 µM,1.1
same,relative viability,EMC-BAC-2; first compound 0.8 µM,0.99
same,relative viability,EMC-BAC-2; first compound 2.53 µM,0.904
same,relative viability,EMC-BAC-2; first compound 8 µM,1.05
same,relative viability,NCI-H322M; first compound 0.08 µM,0.928
same,relative viability,NCI-H322M; first compound 0.253 µM,1.33
same,relative viability,NCI-H322M; first compound 0.8 µM,0.839
same,relative viability,NCI-H322M; first compound 2.53 µM,0.902
same,relative viability,NCI-H322M; first compound 8 µM,0.964
same,relative viability,NCI-H2405; first compound 0.08 µM,1.05
same,relative viability,NCI-H2405; first compound 0.253 µM,1
same,relative viability,NCI-H2405; first compound 0.8 µM,1.05
same,relative viability,NCI-H2405; first compound 2.53 µM,0.882
same,relative viability,NCI-H2405; first compound 8 µM,1.05
same,relative viability,SW 1573; first compound 0.08 µM,1.03
same,relative viability,SW 1573; first compound 0.253 µM,0.943
same,relative viability,SW 1573; first compound 0.8 µM,0.951
same,relative viability,SW 1573; first compound 2.53 µM,0.74
same,relative viability,SW 1573; first compound 8 µM,0.731
same,relative viability,RERF-LC-KJ; first compound 0.08 µM,0.94
same,relative viability,RERF-LC-KJ; first compound 0.253 µM,0.973
same,relative viability,RERF-LC-KJ; first compound 0.8 µM,0.909
same,relative viability,RERF-LC-KJ; first compound 2.53 µM,0.797
same,relative viability,RERF-LC-KJ; first compound 8 µM,0.961
same,relative viability,NCI-H1563; first compound 0.08 µM,0.953
same,relative viability,NCI-H1563; first compound 0.253 µM,0.955
same,relative viability,NCI-H1563; first compound 0.8 µM,0.883
same,relative viability,NCI-H1563; first compound 2.53 µM,0.844
same,relative viability,NCI-H1563; first compound 8 µM,0.877
same,relative viability,SW 900; first compound 0.08 µM,0.913
same,relative viability,SW 900; first compound 0.253 µM,1.07
same,relative viability,SW 900; first compound 0.8 µM,0.842
same,relative viability,SW 900; first compound 2.53 µM,0.945
same,relative viability,SW 900; first compound 8 µM,0.804
same,relative viability,NCI-H3122; first compound 0.08 µM,0.966
same,relative viability,NCI-H3122; first compound 0.253 µM,0.848
same,relative viability,NCI-H3122; first compound 0.8 µM,0.936
same,relative viability,NCI-H3122; first compound 2.53 µM,0.952
same,relative viability,NCI-H3122; first compound 8 µM,0.983
same,relative viability,SK-LU-1; first compound 0.08 µM,0.794
same,relative viability,SK-LU-1; first compound 0.253 µM,0.721
same,relative viability,SK-LU-1; first compound 0.8 µM,0.881
same,relative viability,SK-LU-1; first compound 2.53 µM,0.736
same,relative viability,SK-LU-1; first compound 8 µM,0.766

# Source: the supplement of paper PMC10307832
